Data on 34 molecules can be found in patent US12673946B2, “Pyrimidin-4(3H)-one derivatives as TRPV4 antagonists” (RaQualia Pharma Inc., priority 2020, dated 2026).

In the experiment the target is T1, human TRPV4 (Homo sapiens, UniProt Q9HBA0).
T1 construct: host or cells: tetracycline-inducible Flp-In T-REx 293 cells
Briefly: Hypotonicity-induced Ca2+ influx (Fluo-4, FDSS). Type of experiment: cell-based. The essentials:
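Flp-In T-REx 293 cells with tetracycline-induced human TRPV4, loaded with Fluo-4 for 60 min at 25 °C. Compound added 5 min before hypotonic mannitol/CaCl2 solution. Ca2+ signal recorded for 4.5 min on FDSS.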

Where [1] appears, read: Flp-In T-REx 293 cells expressing human TRPV4, examples listed under heading 'Human IC50<50 nM'.
Where [2] appears, read: Flp-In T-REx 293 cells stably expressing human TRPV4, compounds listed by potency bin (<10 nM Tables 96-1/96-2, <3 nM Table 97).

Structures are written as SMILES. pIC50: −log10 of the molar value. Bounds are passed on as bounds.

T1 sequence (Q9HBA0 whole entry): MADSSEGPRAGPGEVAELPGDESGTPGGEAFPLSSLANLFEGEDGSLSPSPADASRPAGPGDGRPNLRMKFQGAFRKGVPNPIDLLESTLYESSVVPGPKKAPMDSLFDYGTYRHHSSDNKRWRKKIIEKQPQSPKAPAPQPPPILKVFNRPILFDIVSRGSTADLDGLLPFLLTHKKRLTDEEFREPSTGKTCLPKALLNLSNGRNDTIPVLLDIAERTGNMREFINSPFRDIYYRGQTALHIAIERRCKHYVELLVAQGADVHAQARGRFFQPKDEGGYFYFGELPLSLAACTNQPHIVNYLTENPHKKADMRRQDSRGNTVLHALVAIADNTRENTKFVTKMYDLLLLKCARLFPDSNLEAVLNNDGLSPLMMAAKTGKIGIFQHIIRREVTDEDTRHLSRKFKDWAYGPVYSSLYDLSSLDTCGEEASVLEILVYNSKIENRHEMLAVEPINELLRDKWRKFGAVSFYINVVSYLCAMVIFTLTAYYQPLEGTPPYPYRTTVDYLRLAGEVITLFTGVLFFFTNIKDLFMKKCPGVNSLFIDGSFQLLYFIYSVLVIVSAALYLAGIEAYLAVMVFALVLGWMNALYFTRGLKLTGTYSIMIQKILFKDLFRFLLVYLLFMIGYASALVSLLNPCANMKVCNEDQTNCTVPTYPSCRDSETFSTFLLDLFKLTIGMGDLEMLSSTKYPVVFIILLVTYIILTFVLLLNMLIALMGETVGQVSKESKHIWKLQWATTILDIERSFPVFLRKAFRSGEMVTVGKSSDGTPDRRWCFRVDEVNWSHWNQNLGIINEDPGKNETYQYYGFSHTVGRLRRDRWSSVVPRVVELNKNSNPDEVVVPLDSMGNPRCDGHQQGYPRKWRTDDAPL

As to `O=C([C@H](O)c1cccc(C(F)(F)F)c1)N1CCCc2nc(C3(c4cccc(-c5cnsc5)c4)CC3)[nH]c(=O)c2C1` [42-1], the negative-log IC50 (pIC50) runs as follows: under setting [1], more than 7.30; under setting [2], more than 8.52.
For `COc1cc(-c2cccc(C3(c4nc5c(c(=O)[nH]4)CN(C(=O)[C@H](O)c4cccc(C(F)(F)F)c4)CCC5)CC3)c2)ccn1` [42-2], the negative logarithm of the IC50 (pIC50) by setting is: under setting [1], more than 7.30; under setting [2], more than 8.52.
As for `O=C([C@H](O)c1cccc(C(F)(F)F)c1)N1CCCc2nc(C3(c4cccc(-c5cnc(N6CCCC6)nc5)c4)CC3)[nH]c(=O)c2C1` [42-3], the pIC50 reads like this: under setting [1], more than 7.30; under setting [2], more than 8.52.
Turning to `COCCOc1cccc(-c2cccc(C3(c4nc5c(c(=O)[nH]4)CN(C(=O)[C@H](O)c4cccc(C(F)(F)F)c4)CCC5)CC3)c2)c1` [42-4], the negative-log IC50 (pIC50) under setting [1] was more than 7.30 and the pIC50 under setting [2] was more than 8.52.
As for `N#Cc1cccc(-c2cccc(C3(c4nc5c(c(=O)[nH]4)CN(C(=O)[C@H](O)c4cccc(C(F)(F)F)c4)CCC5)CC3)c2)c1` [42-5], the pIC50 runs as follows: under setting [1], more than 7.30; under setting [2], more than 8.52.
On to `O=C([C@H](O)c1cccc(C(F)(F)F)c1)N1CCCc2nc(C3(c4cccc(-c5cnn(C6CC6)c5)c4)CC3)[nH]c(=O)c2C1` [42-6], for which the negative logarithm of the IC50 (pIC50) runs as follows: under setting [1], more than 7.30; under setting [2], more than 8.52.
For `COc1ccc(-c2cccc(C3(c4nc5c(c(=O)[nH]4)CN(C(=O)[C@H](O)c4cccc(C(F)(F)F)c4)CCC5)CC3)c2)cn1` [42-7], in that order: more than 7.30 and more than 8.52.
Take `O=C([C@H](O)c1cccc(C(F)(F)F)c1)N1CCCc2nc(C3(c4cccc(-c5cccnc5)c4)CC3)[nH]c(=O)c2C1` [42-8]: the pIC50 reads like this: under setting [1], more than 7.30; under setting [2], more than 8.52.
Turning to `O=C(c1cccc(-c2cccc(C3(c4nc5c(c(=O)[nH]4)CN(C(=O)[C@H](O)c4cccc(C(F)(F)F)c4)CCC5)CC3)c2)c1)N1CCCCC1` [42-9], the negative logarithm of the IC50 (pIC50) is more than 7.30 under setting [1] and more than 8.52 under setting [2].
On to `CC1CCN(c2ccc(-c3cccc(C4(c5nc6c(c(=O)[nH]5)CN(C(=O)[C@H](O)c5cccc(C(F)(F)F)c5)CCC6)CC4)c3)cn2)CC1` [42-10], for which the pIC50 under setting [1] is more than 7.30 and the pIC50 under setting [2] is more than 8.52.
On to `CN(C)c1ccc(-c2cccc(C3(c4nc5c(c(=O)[nH]4)CN(C(=O)[C@H](O)c4cccc(C(F)(F)F)c4)CCC5)CC3)c2)cc1` [42-11], for which the negative-log IC50 (pIC50) is more than 7.30 under setting [1] and more than 8.52 under setting [2].
Take `O=C([C@H](O)c1cccc(C(F)(F)F)c1)N1CCCc2nc(C3(c4cccc(-c5cnn(C6CCC6)c5)c4)CC3)[nH]c(=O)c2C1` [42-12]: the pIC50 runs as follows: under setting [1], more than 7.30; under setting [2], more than 8.52.
On the same counts, the results for `CN(C)c1ccc(-c2cccc(C3(c4nc5c(c(=O)[nH]4)CN(C(=O)[C@H](O)c4cccc(C(F)(F)F)c4)CCC5)CC3)c2)cn1` [42-13] are more than 7.30 and more than 8.52.
For `Cn1c(=O)oc2cc(-c3cccc(C4(c5nc6c(c(=O)[nH]5)CN(C(=O)[C@H](O)c5cccc(C(F)(F)F)c5)CCC6)CC4)c3)ccc21` [42-14], the negative-log IC50 (pIC50) by setting is: under setting [1], more than 7.30; under setting [2], more than 8.52.
`CS(=O)(=O)c1cccc(-c2cccc(C3(c4nc5c(c(=O)[nH]4)CN(C(=O)[C@H](O)c4cccc(C(F)(F)F)c4)CCC5)CC3)c2)c1` [42-15] gave a pIC50 under setting [1] of more than 7.30 and a negative-log IC50 (pIC50) under setting [2] of more than 8.52.
For the molecule `O=C([C@H](O)c1cccc(C(F)(F)F)c1)N1CCCc2nc(C3(c4cccc(-c5ccccc5)c4)CC3)[nH]c(=O)c2C1` [42-16], the pIC50 by setting is: under setting [1], more than 7.30; under setting [2], more than 8.00.
For `O=C([C@H](O)c1cccc(C(F)(F)F)c1)N1CCCc2nc(C3(c4cccc(-c5ccncc5)c4)CC3)[nH]c(=O)c2C1` [42-17], in that order: more than 7.30 and more than 8.00.
Regarding `CN(C)S(=O)(=O)c1ccc(-c2cccc(C3(c4nc5c(c(=O)[nH]4)CN(C(=O)[C@H](O)c4cccc(C(F)(F)F)c4)CCC5)CC3)c2)cc1` [42-18], the negative-log IC50 (pIC50) is more than 7.30 under setting [1] and more than 8.00 under setting [2].
On the same counts, the results for `N#Cc1cncc(-c2cccc(C3(c4nc5c(c(=O)[nH]4)CN(C(=O)[C@H](O)c4cccc(C(F)(F)F)c4)CCC5)CC3)c2)c1` [42-19] are more than 7.30 and more than 8.00.
For `Cn1ncc2cc(-c3cccc(C4(c5nc6c(c(=O)[nH]5)CN(C(=O)[C@H](O)c5cccc(C(F)(F)F)c5)CCC6)CC4)c3)ccc21` [42-20], in that order: more than 7.30 and more than 8.00.
The molecule `O=C([C@H](O)c1cccc(C(F)(F)F)c1)N1CCCc2nc(C3(c4cccc(-c5cnn(C(F)F)c5)c4)CC3)[nH]c(=O)c2C1` [42-21] gave a pIC50 under setting [1] of more than 7.30 and a pIC50 under setting [2] of more than 8.00.
As for `O=C([C@H](O)c1cccc(C(F)(F)F)c1)N1CCCc2nc(C3(c4cccc(-c5ccc(C6(O)CCOCC6)cc5)c4)CC3)[nH]c(=O)c2C1` [42-22], the pIC50 is, setting by setting: under setting [1], more than 7.30; under setting [2], more than 8.00.
Turning to `COCCn1cc(-c2cccc(C3(c4nc5c(c(=O)[nH]4)CN(C(=O)[C@H](O)c4cccc(C(F)(F)F)c4)CCC5)CC3)c2)cn1` [42-23], the pIC50 by setting is: under setting [1], more than 7.30; under setting [2], more than 8.00.
Take `Cn1ncc2c(-c3cccc(C4(c5nc6c(c(=O)[nH]5)CN(C(=O)[C@H](O)c5cccc(C(F)(F)F)c5)CCC6)CC4)c3)cccc21` [42-24]: the negative-log IC50 (pIC50) runs as follows: under setting [1], more than 7.30; under setting [2], more than 8.00.
For `O=C([C@H](O)c1cccc(C(F)(F)F)c1)N1CCCc2nc(C3(c4cccc(-c5cncs5)c4)CC3)[nH]c(=O)c2C1` [42-25], in that order: more than 7.30 and more than 8.00.
As to `Cn1nccc1-c1cccc(C2(c3nc4c(c(=O)[nH]3)CN(C(=O)[C@H](O)c3cccc(C(F)(F)F)c3)CCC4)CC2)c1` [42-26], the negative logarithm of the IC50 (pIC50) was more than 7.30 under setting [1] and more than 8.00 under setting [2].
For the molecule `Cn1cc(-c2cccc(C3(c4nc5c(c(=O)[nH]4)CN(C(=O)[C@H](O)c4cccc(C(F)(F)F)c4)CCC5)CC3)c2)cn1` [42-27], the negative logarithm of the IC50 (pIC50) is, setting by setting: under setting [1], more than 7.30; under setting [2], more than 8.00.
For `O=C([C@H](O)c1cccc(C(F)(F)F)c1)N1CCCc2nc(C3(c4cccc(-c5csc6ccccc56)c4)CC3)[nH]c(=O)c2C1` [42-28], in that order: more than 7.30 and more than 8.00.
Take `O=C([C@H](O)c1cccc(C(F)(F)F)c1)N1CCCc2nc(C3(c4cccc(-c5cc6ccccc6s5)c4)CC3)[nH]c(=O)c2C1` [42-29]: the pIC50 was more than 7.30 under setting [1] and more than 8.00 under setting [2].
On to `O=C([C@H](O)c1cccc(C(F)(F)F)c1)N1CCCc2nc(C3(c4cccc(-c5cnco5)c4)CC3)[nH]c(=O)c2C1` [42-30], for which the pIC50 reads like this: under setting [1], more than 7.30; under setting [2], more than 8.00.
For the molecule `CN(C)C(=O)c1cccc(-c2cccc(C3(c4nc5c(c(=O)[nH]4)CN(C(=O)[C@H](O)c4cccc(C(F)(F)F)c4)CCC5)CC3)c2)c1` [42-31], the pIC50 reads like this: under setting [1], more than 7.30; under setting [2], more than 8.00.
Consider `CNc1cc(-c2cccc(C3(c4nc5c(c(=O)[nH]4)CN(C(=O)[C@H](O)c4cccc(C(F)(F)F)c4)CCC5)CC3)c2)ccn1` [42-32], for which the negative-log IC50 (pIC50) is more than 7.30 under setting [1] and more than 8.00 under setting [2].
Consider `O=C([C@H](O)c1cccc(C(F)(F)F)c1)N1CCCc2nc(C3(c4cccc(-c5cncnc5)c4)CC3)[nH]c(=O)c2C1` [42-33], for which the negative logarithm of the IC50 (pIC50) under setting [1] was more than 7.30.
Under setting [1], `Cn1ccc(-c2cccc(C3(c4nc5c(c(=O)[nH]4)CN(C(=O)[C@H](O)c4cccc(C(F)(F)F)c4)CCC5)CC3)c2)n1` [42-34] gave a negative-log IC50 (pIC50) of more than 7.30.
